Measurements: patent publication US12522877B2, “Early detection of drug-resistant mycobacterium tuberculosis” (The Translational Genomics Research Institute, priority 2020, dated 2026)

Tests used:
M. tuberculosis isolates [1] = assay type: cell-based, Mycobacterium tuberculosis
[2] = human, in vivo
M. tuberculosis isolates [3] = assay type: cell-based, Mycobacterium tuberculosis; remark: listed apart in the source
[4] = in vivo; cited from earlier work

Structure (SMILES) | Phenotypic DST (M. tuberculosis isolates [1]) | adverse effect for which the drug was stopped [2] | other results
CC1COc2c(N3CCN(C)CC3)c(F)cc3c(=O)c(C(=O)O)cn1c23 (stereo not drawn) [Ofloxacin] | S and R | – | –
NC(=O)c1cnccn1 [Pyrazinamide] | – | persistent arthralgias and changes in vision | –
NNC(=O)c1ccncc1 [Isoniazid] | – | vision problems | –
COc1nc2ccc(Br)cc2cc1[C@@H](c1ccccc1)[C@@](O)(CCN(C)C)c1cccc2ccccc12 [bedaquiline] | – | – | acquired resistance to bedaquiline (M. tuberculosis isolates [3]): 39%; half-life [4]: 5.5 months
NCC[C@H](O)C(=O)N[C@@H]1C[C@H](N)[C@@H](O[C@H]2O[C@H](CN)[C@@H](O)[C@H](O)[C@H]2O)[C@H](O)[C@H]1O[C@H]1O[C@H](CO)[C@@H](O)[C@H](N)[C@H]1O [Amikacin] | S | – | Phenotypic susceptibility (M. tuberculosis isolates [1]): phenotypically susceptible; Routine phenotypic DST (M. tuberculosis isolates [1]): susceptible
CC[C@@H](CO)NCCN[C@@H](CC)CO [ethambutol] | – | persistent arthralgias and changes in vision | –
